In US8343536B2, “Biofilm-inhibiting medical products” (Cook Biotech Incorporated, priority 2007, dated 2013):

Test system: mice
Test: Mouse subcutaneous implant method, in vivo angiogenesis and tolerability of BisEDT coated SIS (Example 7)
Settings: 10 or 100 μg/cm^2 on SIS, 3 weeks
Method: The Example was performed to compare the in vivo angiogenic response to SIS compared to 2 levels of BisEDT coated SIS. The model used to detect in vivo angiogenesis was the mouse subcutaneous implant method as generally described by Heeschen et al., Nat. Med. […]; 7:833-9.
BisEDT was obtained from Microbion, Inc. as previously described. All SIS based grafts were made from 4-layer lyophilized sheets as described in the previous Examples. Sample groups consisted of this material coated with 10 μg/cm^2 BisEDT or 100 μg/cm^2 BisEDT. Each material was cut into ten 15 mm discs. Nylon filters with 0.22 μm pores were sewn on to the top and bottom of each disc. Low temperature ethylene oxide sterilization was used for each sample.
Samples were implanted subcutaneously into the dorsal flanks of mice. After anesthesia using Ketamine (87 mg/kg) and Xylazine (13 mg/kg), a small incision was made on the posterior neck of the mouse and a dorsal subcutaneous cavity was created using blunt dissection with hemostats. This was followed by sample placement and closure of the incision with 4 interrupted stitches of 5-0 suture. Six mice per group underwent disc implantation. The implant remained in the mice for a period of 3 weeks followed by probing for capillary formation.
Mice were sacrificed using a double dose of anesthesia to ensure intact flow in vasculature. While the heart was still beating, the chest cavity was exposed, vena cava severed, and 10 ml of heparized saline injected into the left ventricle using a 23 ga butterfly infusion set to exsanguinate the mouse. After transferring syringes (while maintaining infusion needle in left ventricle), 4 ml of a fluorescent microsphere (yellow-green, 0.1 μm diameter, Molecular Probes, F-8803) suspension (1:20 dilution of stock suspension) was injected through the left ventricle resulting in perfusion of the entire vasculature. Care was taken to ensure no bubbles were introduced during the injections, as bubbles will cause micro-emboli obstructing consistent perfusion. […]

## bismuth-1,2-ethanedithiol [BisEDT]
  Angiogenic potential of coated SIS: neither level of BisEDT (10 or 100 μg/cm^2) coated onto the SIS affected the angiogenic potential
  Local toxicity at explant: no visual evidence of local toxicity at explant
  Systemic toxicity: no observed symptoms of systemic toxicity
